# In ChEMBL document CHEMBL5506055, “Hit-to-Lead Optimization of the Natural Product Oridonin as Novel NLRP3 Inflammasome Inhibitors with Potent Anti-Inflammation Activity” (J Med Chem, 2024):
# Activity calls are given as the source filed them. The calls are words filed in the database; no cut-off is given here.
# Tests used:
# [1] = target: NACHT, LRR and PYD domains-containing protein 3 (Mus musculus) (UniProt Q8R4B8); test: Inhibition of NLRP3 inflammasome activation in LPS/ATP-induced C57BL/6 mouse BMDMs assessed as reduction in IL-1beta secretion at 100 nM preincubated with LPS for 4 hrs followed by compound addition for 30 mins and further stimulated with ATP for 30 mins by ELISA relative to control; format: cell-based; conditions: BMDM, time 1.0 hrs
# Chain of NACHT, LRR and PYD domains-containing protein 3 (Mus musculus) (Q8R4B8 whole entry, the tested form may be a part): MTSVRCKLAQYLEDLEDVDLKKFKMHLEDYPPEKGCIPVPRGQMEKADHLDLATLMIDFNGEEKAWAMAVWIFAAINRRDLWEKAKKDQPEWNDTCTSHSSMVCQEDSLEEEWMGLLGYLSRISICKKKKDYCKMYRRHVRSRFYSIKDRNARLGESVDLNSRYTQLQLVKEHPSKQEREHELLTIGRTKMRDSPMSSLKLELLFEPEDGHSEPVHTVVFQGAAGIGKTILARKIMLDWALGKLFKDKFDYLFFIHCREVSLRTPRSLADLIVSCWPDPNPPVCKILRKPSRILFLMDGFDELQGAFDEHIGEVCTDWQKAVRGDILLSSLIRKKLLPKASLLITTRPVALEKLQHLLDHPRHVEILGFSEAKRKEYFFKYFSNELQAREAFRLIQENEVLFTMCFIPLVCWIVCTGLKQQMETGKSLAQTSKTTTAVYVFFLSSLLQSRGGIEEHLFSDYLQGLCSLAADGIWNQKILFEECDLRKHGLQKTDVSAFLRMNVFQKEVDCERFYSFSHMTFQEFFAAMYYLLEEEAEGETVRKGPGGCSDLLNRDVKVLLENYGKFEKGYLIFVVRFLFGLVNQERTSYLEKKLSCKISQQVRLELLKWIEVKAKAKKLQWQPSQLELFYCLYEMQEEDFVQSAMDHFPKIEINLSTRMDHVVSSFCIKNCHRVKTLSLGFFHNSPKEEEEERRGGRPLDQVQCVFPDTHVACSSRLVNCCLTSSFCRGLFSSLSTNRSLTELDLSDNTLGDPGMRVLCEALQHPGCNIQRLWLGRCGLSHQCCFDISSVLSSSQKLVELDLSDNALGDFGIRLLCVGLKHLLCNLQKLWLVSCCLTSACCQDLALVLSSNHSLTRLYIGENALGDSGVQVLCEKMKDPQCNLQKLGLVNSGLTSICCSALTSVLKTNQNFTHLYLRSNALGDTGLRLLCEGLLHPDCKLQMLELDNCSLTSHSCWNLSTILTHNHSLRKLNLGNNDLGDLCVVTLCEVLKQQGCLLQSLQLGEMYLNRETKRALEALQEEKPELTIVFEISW
# [2] = target: NACHT, LRR and PYD domains-containing protein 3 (Mus musculus) (UniProt Q8R4B8); test: Inhibition of NLRP3 inflammasome activation in LPS/ATP-induced C57BL/6 mouse BMDMs assessed as reduction in IL-1beta secretion at 200 nM preincubated with LPS for 4 hrs followed by compound addition for 30 mins and further stimulated with ATP for 30 mins by ELISA relative to control; format: cell-based; conditions: BMDM, time 1.0 hrs
# [3] = target: NACHT, LRR and PYD domains-containing protein 3 (Mus musculus) (UniProt Q8R4B8); test: Inhibition of NLRP3 inflammasome activation in LPS/ATP-induced C57BL/6 mouse BMDMs assessed as reduction in IL-1beta secretion at 500 nM preincubated with LPS for 4 hrs followed by compound addition for 30 mins and further stimulated with ATP for 30 mins by ELISA relative to control; format: cell-based; conditions: BMDM, time 1.0 hrs
# [4] = target: NACHT, LRR and PYD domains-containing protein 3 (Mus musculus) (UniProt Q8R4B8); test: Inhibition of NLRP3 inflammasome activation in LPS/ATP-induced C57BL/6 mouse BMDMs assessed as reduction in IL-1beta secretion at 50 to 200 nM preincubated with LPS for 4 hrs followed by compound addition for 30 mins and further stimulated with ATP for 30 mins by Western blotting analysis relative to oridonin; format: cell-based; conditions: BMDM, dose 50-200 nM, time 1.0 hrs
# [5] = target: NACHT, LRR and PYD domains-containing protein 3 (Mus musculus) (UniProt Q8R4B8); test: Inhibition of NLRP3 inflammasome activation in LPS/ATP-induced C57BL/6 mouse BMDMs assessed as reduction in maturation of pro-caspase-1 preincubated with LPS for 4 hrs followed by compound addition for 30 mins and further stimulated with ATP for 30 mins by ELISA; format: cell-based; conditions: BMDM, time 1.0 hrs
# [6] = target: NACHT, LRR and PYD domains-containing protein 3 (Mus musculus) (UniProt Q8R4B8); test: Inhibition of NLRP3 inflammasome activation in LPS/ATP-induced C57BL/6 mouse BMDMs assessed as reduction in NLRP3 expression preincubated with compound prior to LPS addition for 30 mins and further stimulated with ATP for 30 mins by Western blotting analysis; format: cell-based; conditions: BMDM, dose 50-200 nM, time 60.0 min
# [7] = target: NACHT, LRR and PYD domains-containing protein 3 (Mus musculus) (UniProt Q8R4B8); test: Inhibition of NLRP3 inflammasome activation in LPS/ATP-induced C57BL/6 mouse BMDMs assessed as reduction in TNFalpha production at 50 to 200 nM preincubated with compound prior to LPS addition for 30 mins and further stimulated with ATP for 30 mins by Western blotting analysis; format: cell-based; conditions: BMDM, dose 50-200 nM, time 60.0 min
# [8] = target: NACHT, LRR and PYD domains-containing protein 3 (Mus musculus) (UniProt Q8R4B8); test: Inhibition of NLRP3 inflammasome activation in LPS/ATP-induced C57BL/6 mouse BMDMs assessed as reduction in pro-IL-1beta production at 50 to 200 nM preincubated with compound prior to LPS addition for 30 mins and further stimulated with ATP for 30 mins by Western blotting analysis; format: cell-based; conditions: BMDM, dose 50-200 nM, time 60.0 min
# [9] = target: NACHT, LRR and PYD domains-containing protein 3 (Mus musculus) (UniProt Q8R4B8); test: Inhibition of NLRP3 inflammasome activation in LPS-induced C57BL/6 mouse BMDMs assessed as effect on p65 expression at 50 to 200 nM preincubated for 24 hrs followed by LPS addition for 4 hrs by Western blotting analysis; format: cell-based; conditions: BMDM, dose 50-200 nM, time 28.0 hrs
# [10] = target: NACHT, LRR and PYD domains-containing protein 3 (Mus musculus) (UniProt Q8R4B8); test: Inhibition of NLRP3 inflammasome activation in LPS/ATP-induced C57BL/6 mouse BMDMs assessed as reduction in TNFalpha level at 1000 nM preincubated for 30 mins followed by LPS addition for 4 hrs and further ATP stimulation for 30 mins by ELISA; format: cell-based; conditions: BMDM, time 5.0 hrs
# [11] = target: NACHT, LRR and PYD domains-containing protein 3 (Mus musculus) (UniProt Q8R4B8); test: Inhibition of NLRP3 inflammasome activation in LPS/nigericin-induced C57BL/6 mouse BMDMs at 200 nM preincubated with LPS for 4 hrs followed by compound addition for 30 mins and further stimulated with nigericin for 30 mins by ELISA; format: cell-based; conditions: BMDM, time 1.0 hrs
# [12] = target: NACHT, LRR and PYD domains-containing protein 3 (Mus musculus) (UniProt Q8R4B8); test: Inhibition of NLRP3 inflammasome activation in LPS/ATP-induced C57BL/6 mouse BMDMs assessed as inhibition of ASC oligomerization by measuring reduction in pro-IL-1beta expression at 50 to 200 nM preincubated with LPS for 4 hrs followed by compound addition for 30 mins and further stimulated with ATP for 30 mins by Western blotting analysis; format: cell-based; conditions: BMDM, dose 50-200 nM, time 1.0 hrs
# [13] = target: Nlrp3/Pycard (Mus musculus) (UniProt Q8R4B8+Q9EPB4); test: Inhibition of NLRP3/ASC protein-protein interaction in LPS/ATP-induced C57BL/6 mouse BMDMs at 200 nM preincubated with LPS for 4 hrs followed by compound addition for 30 mins and further stimulated with ATP for 30 mins by Western blotting analysis; format: cell-based; conditions: BMDM, time 1.0 hrs
# Chain of Nlrp3/Pycard (Mus musculus) (Q8R4B8 whole entry, looked up, the tested form may be a part): as the sequence (Q8R4B8 whole entry, the tested form may be a part) above
# Chain of Nlrp3/Pycard (Mus musculus) (Q9EPB4 whole entry, looked up, the tested form may be a part): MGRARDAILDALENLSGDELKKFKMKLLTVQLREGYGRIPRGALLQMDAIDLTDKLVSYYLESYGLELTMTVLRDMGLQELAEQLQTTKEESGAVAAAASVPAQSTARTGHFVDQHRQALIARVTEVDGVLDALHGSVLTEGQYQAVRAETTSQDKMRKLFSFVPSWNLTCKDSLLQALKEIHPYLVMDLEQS
# [14] = target: NACHT, LRR and PYD domains-containing protein 3 (Mus musculus) (UniProt Q8R4B8); test: Binding affinity to NLRP3 in mouse BMDMs at 100 uM incubated for 30 mins by CETSA; format: cell-based; conditions: BMDM
# [15] = target: NACHT, LRR and PYD domains-containing protein 3 (Mus musculus) (UniProt Q8R4B8); test: Binding affinity to NLRP3 in mouse BMDMs at 10^-2 to 10^3 uM incubated for 10 to 90 mins by ITDRF; format: cell-based; conditions: BMDM, dose 0.01-1000 µM, time 10-90 min
# BMDM = test: Inhibition of mitochondrial damage in mouse BMDMs at 200 nM preincubated with LPS for 4 hrs followed by compound addition for 30 mins and further stimulated with ATP for 30 mins by confocal microscopic analysis; format: functional, cell-based; conditions: time 1.0 hrs
# [16] = Stability in human plasma assessed as half life measured upto 8 hrs; format: ADME, cell-free
# [17] = Stability in rat plasma assessed as half life measured upto 8 hrs; format: ADME, cell-free
# [18] = Stability in mouse plasma assessed as half life measured upto 8 hrs; format: ADME, cell-free
# [19] = Stability in human liver microsomes assessed as half life preincubated for 5 mins with NADPH followed by compound addition and measured upto 120 mins by LC-MS/MS analysis; format: ADME, Microsome; conditions: time < 125 min
# [20] = Stability in rat liver microsomes assessed as half life preincubated for 5 mins with NADPH followed by compound addition and measured upto 120 mins by LC-MS/MS analysis; format: ADME, Microsome; conditions: time < 125 min
# [21] = Stability in mouse liver microsomes assessed as half life preincubated for 5 mins with NADPH followed by compound addition and measured upto 120 mins by LC-MS/MS analysis; format: ADME, Microsome; conditions: time < 125 min
# [22] = Half-life in ICR mouse at 10 mg/kg, po measured upto 24 hrs by LC-MS/MS method; format: ADME, organism-based; conditions: in vivo
# [23] = AUC in ICR mouse at 1 mg/kg, iv measured upto 24 hrs by LC-MS/MS method; format: ADME, organism-based; conditions: in vivo, iv, 1 mg/kg, 24 h
# [24] = Oral bioavailability in ICR mouse at 10 mg/kg measured upto 24 hrs by LC-MS/MS method; format: ADME, organism-based; conditions: in vivo, po, 10 mg/kg, 24 h
# Mus musculus [25] = test: Antiinflammatory activity in C57BL/6 mouse model of arthritis assessed as reduction in MSU-induced IL-1beta secretion at 12.5 to 25 mg/kg, iv measured upto 24 hrs; format: functional, organism-based; conditions: dose 12.5-25 mg/kg
# Mus musculus [26] = test: Antiinflammatory activity in C57BL/6 mouse model of arthritis assessed as reduction in MSU-induced pro-caspase 1 expression in joints at 12.5 to 25 mg/kg, iv measured upto 24 hrs; format: functional, organism-based; conditions: dose 12.5-25 mg/kg
# Mus musculus [27] = test: Antiinflammatory activity in MSU-induced C57BL/6 mouse model of arthritis assessed as reduction in inflammatory cell infiltration at 12.5 to 25 mg/kg, iv measured after 24 hrs; format: functional, organism-based; conditions: dose 12.5-25 mg/kg
# Mus musculus [28] = test: Antiinflammatory activity in MSU-induced C57BL/6 mouse model of arthritis assessed as reduction in inflammatory cell infiltration at 100 mg/kg, po measured after 24 hrs; format: functional, organism-based
structure (smiles),measurement,setting,value
C=C1C(=O)[C@]23[C@H](O)[C@H]1CC[C@H]2[C@]12C=CCC(C)(C)[C@H]1[C@H](O)[C@@]3(OCCC(=O)O)OC2,inhibition,[1],64.3%
same,inhibition,[2],87.5%
same,inhibition,[3],95.3%
same,inhibition,[4],Active
same,inhibition,[5],Dose-Dependent Effect
same,inhibition,[6],inactive
same,inhibition,[7],inactive
same,inhibition,[8],Active
same,inhibition,[9],inactive
same,inhibition,[10],Active
same,inhibition,[11],Active
same,inhibition,[12],inactive
same,inhibition,[13],Active
same,Activity,[14],Active
same,Activity,[15],Active
same,inhibition,BMDM,inactive
same,half-life,[16],415 min
same,half-life,[17],373 min
same,half-life,[18],913 min
same,half-life,[19],182 min
same,half-life,[20],192 min
same,half-life,[21],184 min
same,half-life,[22],96 min
same,AUC,[23],242 ng·h/mL
same,F,[24],9%
same,Activity,Mus musculus [25],Active
same,Activity,Mus musculus [26],inactive
same,Activity,Mus musculus [27],Active
same,Activity,Mus musculus [28],Active
